Measurements from PMC6398866 (PLoS ONE, 2019).

Columns and labels:
E2F3 mRNA = experiment: qRT-PCR of aortic tissue, Ang II mice; assay type: in vivo; details: Ang II-infused mice, 3 mg·kg^-1·day^-1 i.p. day 8 to 14, vs Ang II group
GTPCH mRNA = experiment: qRT-PCR of aortic tissue, Ang II mice; assay type: in vivo; details: Ang II-infused mice, 3 mg·kg^-1·day^-1 i.p. day 8 to 14, vs Ang II group
skeletal α-actin mRNA = experiment: qRT-PCR of heart tissue, Ang II mice; assay type: in vivo; details: Ang II-infused mice, 3 mg·kg^-1·day^-1 i.p. day 8 to 14, vs Ang II group
iNOS mRNA = experiment: qRT-PCR of aortic tissue, Ang II mice; assay type: in vivo; details: Ang II-infused mice, 3 mg·kg^-1·day^-1 i.p. day 8 to 14, vs Ang II group
Nox2 mRNA = experiment: qRT-PCR of aortic tissue, Ang II mice; assay type: in vivo; details: Ang II-infused mice, 3 mg·kg^-1·day^-1 i.p. day 8 to 14, vs Ang II group
p47phox mRNA = experiment: qRT-PCR of aortic tissue, Ang II mice; assay type: in vivo; details: Ang II-infused mice, 3 mg·kg^-1·day^-1 i.p. day 8 to 14, vs Ang II group
[1] = system: Ang II-induced hypertensive mice; experiment: Aortic wall thickness (H&E staining) in Ang II mice; assay type: in vivo; details: Ang II-infused mice, 3 mg·kg^-1·day^-1 i.p. day 8 to 14, H&E, vs Ang II group
VCAM-1 mRNA = experiment: qRT-PCR of aortic tissue, Ang II mice; assay type: in vivo; details: Ang II-infused mice, 3 mg·kg^-1·day^-1 i.p. day 8 to 14, vs Ang II group
Cox-2 mRNA = experiment: qRT-PCR of aortic tissue, Ang II mice; assay type: in vivo; details: Ang II-infused mice, 3 mg·kg^-1·day^-1 i.p. day 8 to 14, vs Ang II group
Nox1 mRNA = experiment: qRT-PCR of aortic tissue, Ang II mice; assay type: in vivo; details: Ang II-infused mice, 3 mg·kg^-1·day^-1 i.p. day 8 to 14, vs Ang II group
arginase 1 mRNA = experiment: qRT-PCR of aortic tissue, Ang II mice; assay type: in vivo; details: Ang II-infused mice, 3 mg·kg^-1·day^-1 i.p. day 8 to 14, vs Ang II group
cyclin D1 mRNA = experiment: qRT-PCR of aortic tissue, Ang II mice; assay type: in vivo; details: Ang II-infused mice, 3 mg·kg^-1·day^-1 i.p. day 8 to 14, vs Ang II group
ANP mRNA = experiment: qRT-PCR of heart tissue, Ang II mice; assay type: in vivo; details: Ang II-infused mice, 3 mg·kg^-1·day^-1 i.p. day 8 to 14, vs Ang II group
cyclin E1 mRNA = experiment: qRT-PCR of aortic tissue, Ang II mice; assay type: in vivo; details: Ang II-infused mice, 3 mg·kg^-1·day^-1 i.p. day 8 to 14, vs Ang II group
BNP mRNA = experiment: qRT-PCR of heart tissue, Ang II mice; assay type: in vivo; details: Ang II-infused mice, 3 mg·kg^-1·day^-1 i.p. day 8 to 14, vs Ang II group
SOD3 mRNA = experiment: qRT-PCR of aortic tissue, Ang II mice; assay type: in vivo; details: Ang II-infused mice, 3 mg·kg^-1·day^-1 i.p. day 8 to 14, vs Ang II group
[2] = system: Ang II-induced hypertensive mice; experiment: Systolic blood pressure (tail-cuff) in Ang II-induced hypertensive mice; assay type: in vivo; details: Ang II-infused mice, 3 mg·kg^-1·day^-1 i.p. day 8 to 14, vs Ang II group
Description: All animal experiments were approved by the Animal Experiment Committee of the Chonnam National University Medical School (CNU IACUC-H-2017-70) and carried out in accordance with the Guide for the Care and Use of Laboratory Animals (US National Institutes of Health Publication, 8th edition, 2011). CD-1 male mice (8-week-old) were purchased from OrientBio Company (Gyeonggi, South Korea). Alzet mini-osmotic pumps (model 1002) were purchased from Durect Corporation (Cupertino, CA, USA).

GATA6 mRNA = experiment: qRT-PCR of aortic tissue, Ang II mice; assay type: in vivo; details: Ang II-infused mice, 3 mg·kg^-1·day^-1 i.p. day 8 to 14, vs Ang II group
CD68+ macrophages = experiment: CD68 immunohistochemistry of aorta (macrophage infiltration), Ang II mice; assay type: in vivo; details: Ang II-infused mice, 3 mg·kg^-1·day^-1 i.p. day 8 to 14, immunohistochemistry
Method: For immunohistochemistry, staining was performed in aortic tissues using a primary CD68 antibody. Before incubation with primary antibodies, aorta sections received antigen retrieval using a citrate buffer. Negative controls were performed without a primary antibody.

arginase 2 mRNA = experiment: qRT-PCR of aortic tissue, Ang II mice; assay type: in vivo; details: Ang II-infused mice, 3 mg·kg^-1·day^-1 i.p. day 8 to 14, vs Ang II group
MCP-1 mRNA = experiment: qRT-PCR of aortic tissue, Ang II mice; assay type: in vivo; details: Ang II-infused mice, 3 mg·kg^-1·day^-1 i.p. day 8 to 14, vs Ang II group
[3] = system: spontaneously hypertensive rats (SHR); parameters: method as in PMID 22389387; details: long-term treatment, SHR ref 22; cited from earlier work
[4] = system: high-fat diet-induced hypertension; parameters: method as in PMID 28720877; details: by downregulating Ang II and AT1 ref 24; cited from earlier work
rat aortic rings = experiment: Isometric tension measurement, U46619-precontracted aortic rings
Method: A vasoconstriction-relaxation study was performed as described previously. Male Sprague-Dawley rats were purchased from Orient Bio (Gyeonggi-do, South Korea). Briefly, the thoracic aortas of the rats were excised and immersed in ice-cold, modified Krebs solution. The aortas were cleaned of all connective tissue, soaked in Krebs-bicarbonate solution, and cut into four ring segments (3.5 mm long). Each aortic ring was suspended in a water-jacketed organ bath (6 mL) maintained at 37°C and aerated with a mixture of 95% O2 and 5% CO2. Each ring was connected to an isometric force transducer (Danish Myo Technology, Skejbyparken, Aarhus N, Denmark). The rings were stretched to an optimal resting tension of 1.0 or 2.0 g, which was maintained throughout the experiment. Each ring was equilibrated in the organ bath solution for 90 min before the contractile responses were measured after the addition of 50 mM KCl.

[5] = system: Ang II-induced hypertensive mice; details: cited from earlier work
[6] = system: model of Cushing's syndrome; parameters: method as in PMID 28928236; details: model of Cushing's syndrome ref 23; cited from earlier work
collagen type III mRNA = experiment: qRT-PCR, Ang II mice; details: Ang II-infused mice, 3 mg·kg^-1·day^-1 i.p. day 8 to 14, S1 Fig
Method: (§1) Mice were anesthetized with a ketamine (120 mg/kg), and xylazine (6.2 mg/kg) mixture and 1-cm incisions were created on the backs of the mice. Ang II (1.3 mg·kg^-1·day^-1) was subcutaneously infused into the mice using an Alzet osmotic pump as described previously [26]. […] Ang II was dissolved in a 0.9% sodium chloride (NaCl) solution. The sham control mice received the vehicle (dimethyl sulfoxide [DMSO]). […] Mice were sacrificed at the end of the study by CO2 inhalation.
(§2) Total RNA from the aorta tissue and cells was isolated with TriZol reagent (Invitrogen Life Technologies, Waltham, MA, USA), and 1 μg RNA was used for the reverse transcription (RT) reaction using TOPscript RT DryMIX (Enzynomics, Daejeon, South Korea). The mRNA amounts were determined using the SYBR Green PCR kit (Enzynomics, Daejeon, South Korea). All the data were normalized to the glyceraldehyde 3-phosphate dehydrogenase (GAPDH) expression using the 2-^ΔΔct method.

TNF-α mRNA = experiment: qRT-PCR of aortic tissue, Ang II mice; assay type: in vivo; details: Ang II-infused mice, 3 mg·kg^-1·day^-1 i.p. day 8 to 14, vs Ang II group
DDAH1 mRNA = experiment: qRT-PCR of aortic tissue, Ang II mice; details: Ang II-infused mice, 3 mg·kg^-1·day^-1 i.p. day 8 to 14, vs Ang II group
Method: as §1, §2

[7] = system: vascular smooth muscle cells (VSMCs); experiment: NO production in VSMC medium (Griess assay); assay type: cell-based; details: MS-275 3 and 10 μM, Ang II 1 μM, 24 h, Griess reagent
Method: VSMCs were seeded in 12 well plates.

ICAM-1 mRNA = experiment: qRT-PCR of aortic tissue, Ang II mice; assay type: in vivo; details: Ang II-infused mice, 3 mg·kg^-1·day^-1 i.p. day 8 to 14, vs Ang II group
[8] = system: Ang II-induced hypertensive mice; experiment: Aortic collagen deposition (Masson's trichrome staining) in Ang II mice; details: Ang II-infused mice, 3 mg·kg^-1·day^-1 i.p. day 8 to 14, Masson's trichrome
Method: Mice were anesthetized with a ketamine (120 mg/kg), and xylazine (6.2 mg/kg) mixture and 1-cm incisions were created on the backs of the mice. Ang II (1.3 mg·kg^-1·day^-1) was subcutaneously infused into the mice using an Alzet osmotic pump as described previously [26]. […] Ang II was dissolved in a 0.9% sodium chloride (NaCl) solution. The sham control mice received the vehicle (dimethyl sulfoxide [DMSO]). […] Mice were subjected to blood pressure measurements three times before determination of the systolic blood pressure on day 14 after Ang II infusion. The blood pressure was measured in awake mice using the tail-cuff method (BP-2000, Visitech Systems, Apex, NC, USA). Mice were sacrificed at the end of the study by CO2 inhalation.
Aortic tissues were fixed in 4% paraformaldehyde at 25°C, embedded in paraffin, and cut into 3-μm thick sections. The tissue slides were deparaffinized three times with xylene and hydrated using serially diluted ethanol. After immersing in tap water for 2 min, the slides were stained with Gill’s hematoxylin V for 5 min and then washed with tap water for 5 min and 95% ethanol for 2 min. The slides were stained with Eosin Y for 1 min, dehydrated with ethanol and xylene, and mounted using Canada balsam. The aortic wall thickness was measured using the NIS Elements Software (Nikon, Japan). […]

ACE1 mRNA = experiment: qRT-PCR of aortic tissue, Ang II mice; details: Ang II-infused mice, 3 mg·kg^-1·day^-1 i.p. day 8 to 14
Method: as §1, §2

[9] = system: Ang II-induced hypertensive mice; experiment: NO levels in serum and aorta of Ang II-infused mice (Griess assay); details: 3 mg·kg^-1·day^-1 i.p.
Method: Mice were anesthetized with a ketamine (120 mg/kg), and xylazine (6.2 mg/kg) mixture and 1-cm incisions were created on the backs of the mice. Ang II (1.3 mg·kg^-1·day^-1) was subcutaneously infused into the mice using an Alzet osmotic pump as described previously [26]. […] Ang II was dissolved in a 0.9% sodium chloride (NaCl) solution. The sham control mice received the vehicle (dimethyl sulfoxide [DMSO]). […] Mice were subjected to blood pressure measurements three times before determination of the systolic blood pressure on day 14 after Ang II infusion. The blood pressure was measured in awake mice using the tail-cuff method (BP-2000, Visitech Systems, Apex, NC, USA).
NO levels in the serum (100 μl) were measured without dilution. Aorta NO levels were determined using 50 μg of protein, which was deproteinized with 5% trichloroacetic acid (TCA).

IL-1β mRNA = experiment: qRT-PCR of aortic tissue, Ang II mice; assay type: in vivo; details: Ang II-infused mice, 3 mg·kg^-1·day^-1 i.p. day 8 to 14, vs Ang II group
AT1 mRNA = experiment: qRT-PCR of aortic tissue, Ang II mice; assay type: in vivo; details: Ang II-infused mice, 3 mg·kg^-1·day^-1 i.p. day 8 to 14, vs Ang II group
AT1 = details: through AT1 ref 25; cited from earlier work

Nc1cc(F)ccc1NC(=O)/C=C/c1cnn(C/C=C/c2ccccc2)c1 [RGFP966]
E2F3 mRNA level in aorta (E2F3 mRNA): significantly inhibited
GTPCH mRNA level in aorta (GTPCH mRNA): significantly reduced
skeletal a-actin mRNA level in heart (skeletal α-actin mRNA): significantly reduced
iNOS mRNA level in aorta (iNOS mRNA): not
Nox2 mRNA level in aorta (Nox2 mRNA): unchanged
p47phox mRNA level in aorta (p47phox mRNA): unchanged
aortic wall thickness [1]: significantly decreased
VCAM-1 expression in aorta (VCAM-1 mRNA): not
Cox-2 mRNA level in aorta (Cox-2 mRNA): not significantly decreased
Nox1 mRNA level in aorta (Nox1 mRNA): unchanged
arginase 1 mRNA level in aorta (arginase 1 mRNA): not reduced
cyclin D1 mRNA level in aorta (cyclin D1 mRNA): not significantly decreased
ANP mRNA level in heart (ANP mRNA): significantly reduced
cyclin E1 mRNA level in aorta (cyclin E1 mRNA): not significantly decreased
BNP mRNA level in heart (BNP mRNA): significantly reduced
SOD3 mRNA expression in aorta (SOD3 mRNA): did not restore
systolic blood pressure [2]: significantly reduced
GATA6 mRNA level in aorta (GATA6 mRNA): significantly suppressed
number of CD68+ macrophages in aorta tissue (CD68+ macrophages): reduced
arginase 2 mRNA level in aorta (arginase 2 mRNA): not reduced
MCP-1 mRNA level in aorta (MCP-1 mRNA): not

CCCC(CCC)C(=O)O [VPA, valproic acid]
cardiac hypertrophy, inflammation, and hypertensive responses [3]: reduces
high-fat diet-induced hypertension [4]: prevents

COC(=O)[C@@H](N)CCCNC(N)=N[N+](=O)[O-] [L-NAME, N^G-nitro-L-arginine methyl ester]
effect of pretreatment on MS-275-induced vascular relaxation (rat aortic rings; endothelium-intact rat aortic rings, L-NAME 10 or 100 μM for 30 min): reduced

CN1CCc2c(c3ccccc3n2Cc2ccc(C(=O)NO)cc2)C1 [tubastatin A]
hypertension ([5]; Ang II-infused mice ref 28): did not reduce

Cn1c(/C=C/C(=O)NO)ccc1/C=C/C(=O)c1cccc(F)c1 [MC1568]
high systolic blood pressure ([5]; Ang II-induced hypertensive mice ref 26): reduces

Nc1ccccc1NC(=O)c1ccc(CNC(=O)OCc2cccnc2)cc1 [MS-275]
E2F3 mRNA level in aorta (E2F3 mRNA): significantly inhibited
GTPCH mRNA level in aorta (GTPCH mRNA): significantly reduced
skeletal a-actin mRNA level in heart (skeletal α-actin mRNA): significantly reduced
iNOS mRNA level in aorta (iNOS mRNA): significantly attenuated
Nox2 mRNA level in aorta (Nox2 mRNA): unchanged
p47phox mRNA level in aorta (p47phox mRNA): unchanged
hypertension and hyperglycemia [6]: attenuates
aortic wall thickness [1]: significantly decreased
collagen type III mRNA level (collagen type III mRNA): reduced
TNF-α mRNA level in aorta (TNF-α mRNA): significantly attenuated
VCAM-1 expression in aorta (VCAM-1 mRNA): significantly inhibited
Cox-2 mRNA level in aorta (Cox-2 mRNA): not significantly decreased
Nox1 mRNA level in aorta (Nox1 mRNA): unchanged
DDAH1 mRNA level in aorta (DDAH1 mRNA): suppressed
arginase 1 mRNA level in aorta (arginase 1 mRNA): not reduced
cyclin D1 mRNA level in aorta (cyclin D1 mRNA): not significantly decreased
NO level in VSMC medium lowered by Ang II [7]: significantly restored
ANP mRNA level in heart (ANP mRNA): significantly reduced
cyclin E1 mRNA level in aorta (cyclin E1 mRNA): not significantly decreased
BNP mRNA level in heart (BNP mRNA): significantly reduced
SOD3 mRNA expression in aorta (SOD3 mRNA): did not restore
systolic blood pressure [2]: significantly reduced
ICAM-1 expression in aorta (ICAM-1 mRNA): significantly inhibited
collagen deposition in the adventitia of aortic tissues [8]: attenuated
GATA6 mRNA level in aorta (GATA6 mRNA): significantly suppressed
ACE1 mRNA level in aorta (ACE1 mRNA): significantly reduced
number of CD68+ macrophages in aorta tissue (CD68+ macrophages): reduced
NO level in aorta [9]: not induced
NO level in serum [9]: not induced
vasorelaxation of U46619-precontracted aortic rings (rat aortic rings; endothelium-intact and -denuded rat aortas, U46619 30 nM, MS-275 cumulative 0.003–3 μM): induced vasorelaxation
concentration at which maximum relaxation was observed (rat aortic rings; rat aortic rings precontracted with U46619 30 nM): 3 µM
IL-1β mRNA level in aorta (IL-1β mRNA): significantly attenuated
AT1 mRNA level in aorta (AT1 mRNA): decreased
arginase 2 mRNA level in aorta (arginase 2 mRNA): not reduced
MCP-1 mRNA level in aorta (MCP-1 mRNA): significantly attenuated

CC(/C=C/C(=O)NO)=C\[C@@H](C)C(=O)c1ccc(N(C)C)cc1 [TSA, trichostatin A]
hypertension and vasoconstriction (AT1): inhibits
